Measured values published in ChEMBL document CHEMBL1140261, “Novel 1-[2-(diarylmethoxy)ethyl]-2-methyl-5-nitroimidazoles as HIV-1 non-nucleoside reverse transcriptase inhibitors. A structure-activity relationship investigation” (J Med Chem, 2005).

Legend:
MT4 [1] = test: Concentration required to protect MT-4 cells from HIV-1 induced cytopathogenicity by 50%; determined by MTT method; format: functional, cell-based; conditions: Homo sapiens
MT4 [2] = test: Concentration required to reduce the viability of mock-infected cells by 50%; determined by MTT method.; format: functional; conditions: Homo sapiens
MT4 [3] = test: (§1) Selective index as the ratio of CC50 and EC50; format: functional
[4] = biological target: Human immunodeficiency virus type 1 reverse transcriptase (Human immunodeficiency virus 1) (UniProt Q72547)
Description: Dose required to inhibit HIV-1 reverse transcriptase activity (wild-type) by 50%

[5] = biological target: T1, Human immunodeficiency virus type 1 reverse transcriptase (Human immunodeficiency virus 1, UniProt Q72547); test: Concentration required to inhibit HIV-1 reverse transcriptase activity (wild-type) by 50%; format: functional
[6] = biological target: Human immunodeficiency virus type 1 reverse transcriptase (Human immunodeficiency virus 1) (UniProt Q72547); test: Dose required to inhibit HIV-1 reverse transcriptase activity of wild-type enzyme by 50%
[7] = biological target: T1, Human immunodeficiency virus type 1 reverse transcriptase; test: Concentration required to inhibit HIV-1 reverse transcriptase activity of wild-type enzyme; format: functional
[8] = system: Human immunodeficiency virus type 1 reverse transcriptase (Human immunodeficiency virus 1), Q72547 [Y181I]
[9] = system: Human immunodeficiency virus type 1 reverse transcriptase (Human immunodeficiency virus 1), Q72547 [R221A]
Description: Dose required to inhibit HIV-1 reverse transcriptase activity (Y188L mutant) by 50%

[10] = system: Human immunodeficiency virus type 1 reverse transcriptase (Human immunodeficiency virus 1), Q72547 [V179D]
Description: Dose required to inhibit HIV-1 reverse transcriptase activity (V179D mutant) by 50%

[11] = system: Human immunodeficiency virus type 1 reverse transcriptase (Human immunodeficiency virus 1), Q72547 [K103N]
[12] = system: Human immunodeficiency virus type 1 reverse transcriptase (Human immunodeficiency virus 1), Q72547 [L100I]
Description: Dose required to inhibit HIV-1 reverse transcriptase activity ( L100I mutant) by 50%

[13] = system: Human immunodeficiency virus type 1 reverse transcriptase (Human immunodeficiency virus 1), Q72547 [L100I]; test: Dose required to inhibit HIV-1 reverse transcriptase activity (L100I mutant) by 50%
[14] = system: Human immunodeficiency virus type 1 reverse transcriptase (Human immunodeficiency virus 1), Q72547 [K103N]; test: Dose required to inhibit HIV-1 reverse transcriptase activity (K103N mutant) by 50%
MT4 [15] = test: as §1; format: functional, Human immunodeficiency virus 1
[16] = biological target: T1, Human immunodeficiency virus type 1 reverse transcriptase; test: Concentration required to inhibit HIV-1 reverse transcriptase activity (wild-type) enzyme

SMILES	EC50 (MT4 [1]) [µM]	CC50 (MT4 [2]) [µM]	SI (MT4 [3])	further results
Cc1ncc([N+](=O)[O-])n1CCNC(c1ccccc1)c1ccccc1Cl (stereo unspecified)	90	> 100	>1.1	–
Cc1ncc([N+](=O)[O-])n1CCNC(c1ccccc1)c1cccc(Cl)c1 (stereo unspecified)	2.1	> 100	>47.6	–
O=[N+]([O-])c1cn(CCOC(c2ccccc2)c2ccccc2)cn1	78	> 100	>1.3	–
Cc1ncc([N+](=O)[O-])n1CCNC(c1ccccc1)c1ccccc1	12	> 100	>8.3	ID50 [4]: 16.5 µM; EC50 [5]: 8 µM
Cc1ncc([N+](=O)[O-])n1CCSC(c1ccccc1)c1cccc(F)c1 (stereo unspecified)	80	> 100	>1.2	–
Cc1ncc([N+](=O)[O-])n1CCN(Cc1ccccc1)C1CCCCC1	84	> 100	>1.2	–
Cc1ncc([N+](=O)[O-])n1CCOC(c1ccccc1)c1cccnc1 (stereo unspecified)	0.08	> 100	>1250	–
Cc1ncc([N+](=O)[O-])n1CCOC(c1cccs1)c1ccccc1F (stereo unspecified)	0.12	> 100	>833	–
Cc1ncc([N+](=O)[O-])n1CCSC(c1ccccc1)c1ccccc1	1.2	> 100	>83.5	ID50 [6]: 10.6%; EC50 [7]: 2.3 µM
Cc1ncc([N+](=O)[O-])n1CCOC(c1ccccc1)c1ccc2ccccc2c1 (stereo unspecified)	> 100	> 100	–	–
Cc1ncc([N+](=O)[O-])n1CCOCc1ccccc1	4.2	> 100	>2.38	–
Cc1ncc([N+](=O)[O-])n1CCOC(c1cccs1)c1cccc(F)c1F (stereo unspecified)	0.06	> 100	>1667	–
Cc1ncc([N+](=O)[O-])n1CCNC(c1ccccc1)c1ccccc1F (stereo unspecified)	50	> 100	>2	–
Cc1ncc([N+](=O)[O-])n1CCSC(c1ccccc1)c1ccccc1F (stereo unspecified)	5	> 100	>20	–
Cc1cccc(C(NCCn2c([N+](=O)[O-])cnc2C)c2ccccc2)c1 (stereo unspecified)	65	> 100	>1.5	–
O=[N+]([O-])c1cncn1CCOC(c1ccccc1)c1ccccc1	> 100	> 100	–	–
Cc1ncc([N+](=O)[O-])n1CCOC(c1ccccc1)c1ccco1 (stereo unspecified)	0.1	> 100	>840	–
Cc1nc([N+](=O)[O-])cn1CCOC(c1ccccc1)c1ccccc1	67	> 100	>1.5	–
Cc1ncc([N+](=O)[O-])n1CCSC(c1ccccc1)c1ccccc1Cl (stereo unspecified)	12	> 100	>8.3	–
Cc1ccc(C(OCCn2c([N+](=O)[O-])cnc2C)c2cccs2)cc1 (stereo unspecified)	0.3	> 100	>3333	–

SMILES	EC50 (MT4 [1]) [µM]	CC50 (MT4 [2]) [µM]	SI (MT4 [3])	further results
Cc1ncc([N+](=O)[O-])n1CCNCc1ccccc1	> 100	> 100	–	–
Cc1ncc([N+](=O)[O-])n1CCOC(c1ccccc1)c1ccc(Cl)s1 (stereo unspecified)	1.2	> 100	8.33	–
Cc1ncc([N+](=O)[O-])n1CCSC(c1ccccc1)c1cccc(Cl)c1 (stereo unspecified)	64	> 100	>1.6	–
Cc1ncc([N+](=O)[O-])n1CCNC(c1ccccc1)c1cccc(F)c1 (stereo unspecified)	1.8	> 100	>55.6	–
Cc1ccnc2c1NC(=O)c1cccnc1N2C1CC1	–	–	–	ID50 [8]: 36 µM; ID50 [9]: 18 µM; ID50 [4]: 0.4 µM; ID50 [10]: 0.3 µM; ID50 [11]: 7 µM; ID50 [12]: 9 µM
Cc1ccc(C(NCCn2c([N+](=O)[O-])cnc2C)c2ccccc2)cc1 (stereo unspecified)	44	> 100	>2.3	–
Cc1ncc([N+](=O)[O-])n1CCOC(c1cccs1)c1ccccc1Cl (stereo unspecified)	1.9	> 100	>52.6	–
Cc1ncc([N+](=O)[O-])n1CCOC(c1cccc(F)c1)c1cccs1 (stereo unspecified)	0.14	> 100	>714	–
Cc1cccc(C(SCCn2c([N+](=O)[O-])cnc2C)c2ccccc2)c1 (stereo unspecified)	3	> 100	>33.3	–
Cc1ncc([N+](=O)[O-])n1CCSCc1ccccc1	60	> 100	>1.7	–
Cc1ncc([N+](=O)[O-])n1CCOC(c1cccc(Cl)c1)c1cccs1 (stereo unspecified)	0.08	72	900	ID50 [8]: 6.25 µM; ID50 [9]: 15.1 µM; ID50 [13]: 3.2 µM; ID50 [4]: 1.17 µM; ID50 [10]: 10.8 µM; ID50 [14]: 5.1 µM
Cc1ncc([N+](=O)[O-])n1CCS(=O)(=O)C(c1ccccc1)c1ccccc1	5.2	> 100	>19.3	–
Cc1ncc([N+](=O)[O-])n1CCOC(c1ccc(Cl)cc1)c1cccs1 (stereo unspecified)	58	> 100	>1.7	–
Cc1nc([N+](=O)[O-])cn1CCOCc1ccccc1	22	> 100	>4.5	–
Cc1ncc([N+](=O)[O-])n1CCOC(c1ccccc1)c1ccccc1	–	> 100	>500	–
Cc1ccccc1C(OCCn1c([N+](=O)[O-])cnc1C)c1cccs1 (stereo unspecified)	0.45	92	204	–
Cc1ncc([N+](=O)[O-])n1CCOC(c1ccccc1)C1CCCCC1 (stereo unspecified)	0.3	> 100	>333.3	–
Cc1ncc([N+](=O)[O-])n1CCNC(c1ccccc1)c1ccc(F)cc1 (stereo unspecified)	92	> 100	>1.1	–
Cc1ncc([N+](=O)[O-])n1CCOC(c1ccc(F)cc1)c1cccs1 (stereo unspecified)	3.1	> 100	>32.3	–
Cc1ncc([N+](=O)[O-])n1CCOC(c1ccccc1)c1cccs1 (stereo unspecified)	0.03	> 100	–	ID50 [8]: > 50 µM; SI (MT4 [15]): >3333; ID50 [9]: 30.2 µM; ID50 [4]: 0.37 µM; ID50 [10]: 1.9 µM; EC50 [16]: 0.03 µM; ID50 [11]: 8.25 µM; ID50 [12]: 5.5 µM
